Source: patent publication US20100222302A1, “Novel Antibacterial Compounds” (priority 2005, published 2010)
Converted amounts (≈) assume the structure as drawn.

Assays:
Assay in all cases: MIC by broth microdilution (NCCLS M7-A4)
Format in all cases: cell-based
M catarrhalis A894 = settings: cation-adjusted Mueller-Hinton Broth, pH 7.2-7.3
Experimental: (§1) These assays have been performed following the description given in “Methods for dilution Antimicrobial Susceptibility Tests for Bacteria that Grow Aerobically, 4th ed.; Approved standard: NCCLS Document M7-A4; National Committee for Clinical Laboratory Standards Villanova, Pa., USA, 1997”. Minimal inhibitory concentrations (MICs; mg/l) were determined in cation-adjusted Mueller-Hinton Broth (BBL) by a microdilution method following NCCLS guidelines (National Committee for Clinical Laboratory Standards. Methods for Dilution Antimicrobial Susceptibility). The pH of the test medium was 7.2-7.3. All the above Examples were tested against several Gram positive and Gram negative bacteria.

S Pneunoniae 49619 = settings: cation-adjusted Mueller-Hinton Broth, pH 7.2-7.3
Experimental: as §1

S. aureus A798 = settings: Staphylococcus aureus, cation-adjusted Mueller-Hinton Broth, pH 7.2-7.3
Experimental: as §1

MIC (M catarrhalis A894) [µg/mL] | MIC (S Pneunoniae 49619) [µg/mL] | MIC (S. aureus A798) [µg/mL] | SMILES
0.25 (≈ 0.384 µM) | ≤ 0.063 | ≤ 0.063 | O=C(O)c1cn(C2CC2)c2c3c(c(F)cc2c1=O)N1C[C@](O)(COc2ccc(N4C[C@H](Cn5ccnn5)OC4=O)cc2F)C[C@@H]1CO3 [Example 4, (13R,16S)-1-cyclopropyl-7-fluoro-16-[2-fluoro-4-((5R)-2-oxo-5-[1,2,3]triazol-1-ylmethyl-oxazolidin-3-yl)-phenoxymethyl]-16-hydroxy-4-oxo-1,4,13,15,16,17-hexahydro-12H-11-oxa-1,14-diaza-cyclopenta[a]phenanthrene-3-carboxylic acid]
≤ 0.063 | ≤ 0.063 | ≤ 0.063 | O=C(O)c1cn(C2CC2)c2c3c(c(F)cc2c1=O)N1C[C@](O)(COc2ccc(N4C[C@H](Cn5ccnn5)OC4=O)cc2F)C[C@H]1CO3 [Example 1, (13S,16S)-1-cyclopropyl-7-fluoro-16-[2-fluoro-4-((5R)-2-oxo-5-[1,2,3]triazol-1-ylmethyl-oxazolidin-3-yl)-phenoxymethyl]-16-hydroxy-4-oxo-1,4,13,15,16,17-hexahydro-12H-11-oxa-1,14-diaza-cyclopenta[a]phenanthrene-3-carboxylic acid]
≤ 0.063 | ≤ 0.063 | ≤ 0.063 | CC(=O)NC[C@H]1CN(c2ccc(OC[C@]3(O)C[C@H]4COc5c(c(F)cc6c(=O)c(C(=O)O)cn(C7CC7)c56)N4C3)c(F)c2)C(=O)O1 [Example 2, (13S,16S)-16-{4-[(5S)-5-(acetylamino-methyl)-2-oxo-oxazolidin-3-yl]-2-fluoro-phenoxymethyl}-1-cyclopropyl-7-fluoro-16-hydroxy-4-oxo-1,4,13,15,16,17-hexahydro-12H-11-oxa-1,14-diaza-cyclopenta[a]phenanthrene-3-carboxylic acid]
